Experimental data reported in ChEMBL document CHEMBL1201862, “PubChem BioAssay data set” (2004).
The source made the active and inactive calls.

What was measured:
[1] = molecular target: T1, Protein Tat (Human immunodeficiency virus type 1 group M subtype B (isolate HXB2)(HIV-1), UniProt P04608); type: functional;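 also: tat binding to TAR RNA read out by fluorescence polarization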
T1 sequence (P04608 whole entry): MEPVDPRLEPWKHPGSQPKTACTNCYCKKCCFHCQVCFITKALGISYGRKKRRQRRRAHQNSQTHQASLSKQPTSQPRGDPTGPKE

[2] = molecular target: T2, Short transient receptor potential channel 4 (Mus musculus, UniProt Q9QUQ5); test: calcium entry via TRPC4 opening agents – cell-based, HEK293 TRPC4/mu-opioid, Fluo-4 calcium, dose response (AID 434937); type: functional
T2 sequence (Q9QUQ5 whole entry): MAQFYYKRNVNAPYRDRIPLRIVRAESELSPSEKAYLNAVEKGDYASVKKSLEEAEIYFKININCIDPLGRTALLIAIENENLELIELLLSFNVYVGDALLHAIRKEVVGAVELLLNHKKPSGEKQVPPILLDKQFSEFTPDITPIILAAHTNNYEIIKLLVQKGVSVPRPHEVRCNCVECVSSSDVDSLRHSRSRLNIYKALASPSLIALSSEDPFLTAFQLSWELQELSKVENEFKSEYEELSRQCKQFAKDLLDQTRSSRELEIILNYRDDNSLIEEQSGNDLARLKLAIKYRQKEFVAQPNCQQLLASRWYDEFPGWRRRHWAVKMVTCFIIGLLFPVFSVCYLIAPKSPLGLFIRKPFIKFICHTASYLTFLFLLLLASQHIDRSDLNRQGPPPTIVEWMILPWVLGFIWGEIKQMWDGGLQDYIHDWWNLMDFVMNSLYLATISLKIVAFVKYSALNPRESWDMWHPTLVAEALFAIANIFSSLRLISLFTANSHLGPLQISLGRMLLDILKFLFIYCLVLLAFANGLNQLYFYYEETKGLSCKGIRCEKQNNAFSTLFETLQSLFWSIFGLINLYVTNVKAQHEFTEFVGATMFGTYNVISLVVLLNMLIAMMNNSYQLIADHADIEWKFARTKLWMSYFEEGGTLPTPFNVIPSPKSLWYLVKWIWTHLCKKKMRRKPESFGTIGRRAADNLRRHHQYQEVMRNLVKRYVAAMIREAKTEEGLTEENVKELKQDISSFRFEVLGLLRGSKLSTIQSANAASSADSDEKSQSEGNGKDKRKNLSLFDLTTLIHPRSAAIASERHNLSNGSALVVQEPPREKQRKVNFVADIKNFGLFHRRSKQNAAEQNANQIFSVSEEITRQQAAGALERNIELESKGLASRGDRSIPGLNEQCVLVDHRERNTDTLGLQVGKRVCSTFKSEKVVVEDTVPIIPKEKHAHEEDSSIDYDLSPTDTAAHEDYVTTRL

[3] = A cytotoxicity screen of small molecule inhibitors of the PhoP region in Salmonella typhi identified in the primary screen. [Related pubchem assays: 1850, 1864, 1985 ]; type: functional
[4] = molecular target: Estrogen receptor beta (Homo sapiens, UniProt Q92731);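 also: recombinant ER-beta bound to coactivator SRC1 peptide in presence of estradiol agonist; inhibitors block coactivator peptide binding and lower the FRET signal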
Sequence of Estrogen receptor beta (Q92731 whole entry): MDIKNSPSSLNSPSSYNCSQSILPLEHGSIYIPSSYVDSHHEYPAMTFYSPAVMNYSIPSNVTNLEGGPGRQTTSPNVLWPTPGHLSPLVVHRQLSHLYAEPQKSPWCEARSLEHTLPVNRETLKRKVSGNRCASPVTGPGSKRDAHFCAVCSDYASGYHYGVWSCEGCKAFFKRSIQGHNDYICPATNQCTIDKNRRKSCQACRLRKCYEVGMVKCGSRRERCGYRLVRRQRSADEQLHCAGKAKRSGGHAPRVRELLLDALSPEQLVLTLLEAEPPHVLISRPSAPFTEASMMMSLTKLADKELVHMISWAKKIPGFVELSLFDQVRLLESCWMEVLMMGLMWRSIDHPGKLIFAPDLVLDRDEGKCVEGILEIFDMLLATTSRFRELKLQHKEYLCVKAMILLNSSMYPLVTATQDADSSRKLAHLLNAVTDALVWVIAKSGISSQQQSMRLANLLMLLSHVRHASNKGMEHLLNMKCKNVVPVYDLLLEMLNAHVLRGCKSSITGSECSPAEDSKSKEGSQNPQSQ

[5] = molecular target: Nonstructural protein 1 (Influenza A virus, UniProt Q194T2); type: functional, Influenza A virus (A/California/07/2009(H1N1))
Sequence of Nonstructural protein 1 (Q194T2 whole entry): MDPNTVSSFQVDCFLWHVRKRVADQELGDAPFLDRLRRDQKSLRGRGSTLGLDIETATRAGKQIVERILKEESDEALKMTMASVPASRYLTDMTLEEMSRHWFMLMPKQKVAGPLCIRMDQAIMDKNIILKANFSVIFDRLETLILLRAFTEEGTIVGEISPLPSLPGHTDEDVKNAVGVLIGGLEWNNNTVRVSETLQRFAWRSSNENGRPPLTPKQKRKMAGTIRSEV

[6] = cells; type: functional, cell-based
[7] = molecular target: T3, RNA-binding protein pos-1 (Caenorhabditis elegans, UniProt G5EF15); test: disruptors of C. elegans POS-1 RNA interaction – biochemical, fluorescence polarization, dose response (AID 1964);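 also: purified POS-1 fused to maltose binding protein made in E. coli; potency of compounds blocking POS-1 binding to fluorescent RNA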
T3 sequence (G5EF15 whole entry): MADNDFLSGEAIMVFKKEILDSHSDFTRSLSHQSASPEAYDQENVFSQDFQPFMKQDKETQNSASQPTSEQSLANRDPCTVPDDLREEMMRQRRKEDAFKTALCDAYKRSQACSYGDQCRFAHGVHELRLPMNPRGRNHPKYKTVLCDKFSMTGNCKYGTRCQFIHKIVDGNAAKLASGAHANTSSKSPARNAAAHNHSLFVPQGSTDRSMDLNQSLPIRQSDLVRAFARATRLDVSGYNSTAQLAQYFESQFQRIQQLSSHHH

[8] = molecular target: T4, Histone-lysine N-methyltransferase NSD2 (Homo sapiens, UniProt O96028); type: biochemical
T4 sequence (O96028 whole entry): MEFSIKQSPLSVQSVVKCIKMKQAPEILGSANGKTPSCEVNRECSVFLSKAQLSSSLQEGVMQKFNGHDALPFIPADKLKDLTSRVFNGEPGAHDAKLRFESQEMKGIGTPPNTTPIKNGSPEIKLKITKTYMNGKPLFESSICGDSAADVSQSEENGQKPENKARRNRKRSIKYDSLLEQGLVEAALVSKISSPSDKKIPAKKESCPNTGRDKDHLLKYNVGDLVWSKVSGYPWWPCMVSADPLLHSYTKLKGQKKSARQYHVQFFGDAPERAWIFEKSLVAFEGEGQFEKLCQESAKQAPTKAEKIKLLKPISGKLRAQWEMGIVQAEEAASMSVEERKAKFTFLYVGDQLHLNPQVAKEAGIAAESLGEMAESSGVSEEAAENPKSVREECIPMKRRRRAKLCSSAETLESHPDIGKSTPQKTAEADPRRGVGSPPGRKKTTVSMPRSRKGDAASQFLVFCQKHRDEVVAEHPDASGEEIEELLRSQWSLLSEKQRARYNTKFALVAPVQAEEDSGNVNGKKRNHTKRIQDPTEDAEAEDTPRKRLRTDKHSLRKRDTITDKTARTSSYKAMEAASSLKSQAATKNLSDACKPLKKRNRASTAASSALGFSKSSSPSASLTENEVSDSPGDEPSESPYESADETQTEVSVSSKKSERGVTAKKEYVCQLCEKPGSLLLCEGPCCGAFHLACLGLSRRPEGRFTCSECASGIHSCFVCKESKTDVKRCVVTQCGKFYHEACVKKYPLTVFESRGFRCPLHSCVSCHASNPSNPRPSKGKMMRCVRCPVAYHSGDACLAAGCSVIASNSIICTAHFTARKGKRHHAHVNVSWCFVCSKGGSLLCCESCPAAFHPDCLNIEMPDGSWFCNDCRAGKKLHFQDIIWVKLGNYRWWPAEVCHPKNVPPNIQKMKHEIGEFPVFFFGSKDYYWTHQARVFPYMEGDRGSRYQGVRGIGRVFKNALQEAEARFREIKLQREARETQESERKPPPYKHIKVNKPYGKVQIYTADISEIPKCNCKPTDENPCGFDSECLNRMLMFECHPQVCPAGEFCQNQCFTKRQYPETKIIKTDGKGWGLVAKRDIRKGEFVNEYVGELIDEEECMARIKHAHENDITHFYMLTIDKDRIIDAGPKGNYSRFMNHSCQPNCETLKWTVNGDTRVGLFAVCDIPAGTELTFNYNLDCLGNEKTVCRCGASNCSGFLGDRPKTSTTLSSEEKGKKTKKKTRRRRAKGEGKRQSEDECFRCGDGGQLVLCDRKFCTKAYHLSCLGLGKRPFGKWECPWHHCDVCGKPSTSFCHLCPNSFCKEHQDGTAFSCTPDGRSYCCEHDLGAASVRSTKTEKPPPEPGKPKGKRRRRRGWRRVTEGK

[9] = molecular target: T5, Zinc finger protein mex-5 (Caenorhabditis elegans, UniProt Q9XUB2); test: potency of MEX-5 RNA-binding blockers – biochemical, C. elegans, fluorescence polarization, dose response (AID 1960)
T5 sequence (Q9XUB2 whole entry): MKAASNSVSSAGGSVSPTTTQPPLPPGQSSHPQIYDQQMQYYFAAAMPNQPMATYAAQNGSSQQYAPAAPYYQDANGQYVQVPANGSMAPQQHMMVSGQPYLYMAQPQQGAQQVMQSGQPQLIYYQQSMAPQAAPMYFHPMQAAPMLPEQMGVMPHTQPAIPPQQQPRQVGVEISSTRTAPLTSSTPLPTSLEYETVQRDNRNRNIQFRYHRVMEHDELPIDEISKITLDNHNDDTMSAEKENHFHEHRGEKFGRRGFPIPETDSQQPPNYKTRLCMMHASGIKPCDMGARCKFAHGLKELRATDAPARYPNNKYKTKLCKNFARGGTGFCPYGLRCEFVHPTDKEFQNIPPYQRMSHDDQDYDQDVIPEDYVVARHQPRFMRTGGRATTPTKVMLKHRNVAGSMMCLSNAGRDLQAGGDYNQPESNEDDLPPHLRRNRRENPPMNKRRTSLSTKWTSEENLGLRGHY

[10] = molecular target: T6, Carboxy-terminal domain RNA polymerase II polypeptide A small phosphatase 1 (Homo sapiens, UniProt Q9GZU7); test: CTDSP1 inhibitors, concentration-response, biochemical, absorbance readout, ultra-high-throughput screen actives (AID 540297); type: functional
T6 sequence (Q9GZU7 whole entry): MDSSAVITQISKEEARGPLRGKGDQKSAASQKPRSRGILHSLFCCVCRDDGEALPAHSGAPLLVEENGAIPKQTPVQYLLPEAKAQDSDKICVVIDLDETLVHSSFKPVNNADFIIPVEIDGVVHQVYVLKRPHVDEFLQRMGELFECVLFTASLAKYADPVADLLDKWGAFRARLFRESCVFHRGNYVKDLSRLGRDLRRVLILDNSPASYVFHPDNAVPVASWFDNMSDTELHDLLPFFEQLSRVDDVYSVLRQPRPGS

[11] = cells; type: functional, cell-based; remark: listed apart in the source
[12] = molecular target: T7, Hexokinase (Trypanosoma brucei, UniProt Q38C41); test: Confirmation assay for inhibitors of Trypanosoma brucei hexokinase 1-Analogue-first series. [Related pubchem assays (depositor defined):AID1430, AID1632, AID2516, AID2560, AID2579, AID2600, AID449725, AID492951]; type: functional
T7 sequence (Q38C41 whole entry): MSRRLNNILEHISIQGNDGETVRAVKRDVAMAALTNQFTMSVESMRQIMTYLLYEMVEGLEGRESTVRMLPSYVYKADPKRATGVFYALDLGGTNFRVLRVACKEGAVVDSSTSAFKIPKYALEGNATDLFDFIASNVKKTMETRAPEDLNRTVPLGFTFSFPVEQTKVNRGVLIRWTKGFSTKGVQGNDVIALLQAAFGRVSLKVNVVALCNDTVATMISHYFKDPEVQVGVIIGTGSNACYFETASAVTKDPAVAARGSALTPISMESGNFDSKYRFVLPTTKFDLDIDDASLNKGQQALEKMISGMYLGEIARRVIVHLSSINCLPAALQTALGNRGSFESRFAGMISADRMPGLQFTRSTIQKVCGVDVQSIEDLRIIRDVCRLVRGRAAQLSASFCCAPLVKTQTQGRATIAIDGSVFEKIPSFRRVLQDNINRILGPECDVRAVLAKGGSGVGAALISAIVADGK

[13] = OVCAR8 cell viability loss – plate reader, dry powder samples, PAX8 project, dose response (AID 743197); type: functional, cell-based; details: OVCAR-8
[14] = molecular target: Paired box protein Pax-8 (Homo sapiens, UniProt Q06710); test: PAX8 transcriptional activity inhibition in RMG-I – RMG-I cells, luciferase, cherry-pick, dose response (AID 687027); type: functional, cell-based;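 also: luciferase reporter driven by Pax8 target thyroperoxidase promoter measured by SteadyGlo luminescence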
Sequence of Paired box protein Pax-8 (Q06710 whole entry): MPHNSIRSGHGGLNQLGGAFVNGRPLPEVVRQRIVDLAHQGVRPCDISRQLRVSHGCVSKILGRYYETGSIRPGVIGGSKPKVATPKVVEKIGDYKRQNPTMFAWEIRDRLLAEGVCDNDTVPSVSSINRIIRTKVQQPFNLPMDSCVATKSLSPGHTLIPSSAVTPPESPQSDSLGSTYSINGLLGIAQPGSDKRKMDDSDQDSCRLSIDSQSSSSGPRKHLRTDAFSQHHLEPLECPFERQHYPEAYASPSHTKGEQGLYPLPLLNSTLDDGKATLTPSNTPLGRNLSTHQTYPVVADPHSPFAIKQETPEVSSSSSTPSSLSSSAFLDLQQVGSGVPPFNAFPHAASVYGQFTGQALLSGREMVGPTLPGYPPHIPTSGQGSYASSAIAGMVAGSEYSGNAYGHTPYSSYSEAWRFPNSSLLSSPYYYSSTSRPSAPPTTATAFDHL

[15] = molecular target: Cytochrome P450 2C19 (Homo sapiens, UniProt P33261); test: Cytochrome panel assay with activity outcomes. Panel member name: p450-cyp2c19 Compounds with AC50 equal or less than 10 uM are considered active; type: functional; details: read-out: AC50
Sequence of Cytochrome P450 2C19 (P33261 whole entry): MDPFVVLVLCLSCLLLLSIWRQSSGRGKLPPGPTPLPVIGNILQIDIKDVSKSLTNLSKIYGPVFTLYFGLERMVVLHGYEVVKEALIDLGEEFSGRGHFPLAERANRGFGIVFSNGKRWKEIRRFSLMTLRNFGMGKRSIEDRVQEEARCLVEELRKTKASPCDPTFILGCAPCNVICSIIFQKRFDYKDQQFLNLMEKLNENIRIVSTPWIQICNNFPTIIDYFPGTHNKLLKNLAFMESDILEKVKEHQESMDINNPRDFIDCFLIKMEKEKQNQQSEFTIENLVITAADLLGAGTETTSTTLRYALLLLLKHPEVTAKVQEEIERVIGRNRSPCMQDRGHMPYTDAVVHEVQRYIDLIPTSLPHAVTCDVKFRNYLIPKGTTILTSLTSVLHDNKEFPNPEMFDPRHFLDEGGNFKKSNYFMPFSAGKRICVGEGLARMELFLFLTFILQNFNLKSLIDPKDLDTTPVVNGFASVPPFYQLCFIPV

SMILES: CCc1ccc2nc(N3CCN(C)CC3)c(C#N)cc2c1
- IC50 [1]: > 100 µM (active)

SMILES: CCN(CC)c1ccc(/C=C/[N+](=O)[O-])cc1
- EC50 [2]: 2.99 µM (active)

SMILES: COc1ccc(-c2nnc(SC(C)C(=O)Nc3nccs3)n2Cc2ccccc2)cc1OC (stereo not given)
- EC50 [3]: > 50 µM (active)

SMILES: Cc1nccn1-c1ncnc2sc3c(c12)CCCC3
- IC50 [4]: > 50 µM (not active)

SMILES: CCN1C(c2ccccc2)=C(c2ccccc2)S/C1=C/C=C1\SC(=S)N(C)C1=O
- IC50 [5]: 7.78 µM (active)

SMILES: O=C(O)c1cccc(-n2cccc2/C=C2/SC(=O)N(CC(=O)N3CCCC3)C2=O)c1
- EC50 [6]: > 350 µM (not active)
- EC50 [7]: > 300 µM (not active)
- AC50 [8]: > 20 µM (inactive)
- EC50 [9]: > 300 µM (not active)
- IC50 [10]: 5.53 µM (active)
- EC50 [11]: > 350 µM (not active)

SMILES: COc1ccc(CC(=O)NCC(c2ccc(OC)cc2)N(C)C)cc1 (stereo not given)
- EC50 [2]: 0.668 µM (active)

SMILES: O=C1[C@@H]2C(Cc3ccc(O)cc3)NC3(C(=O)Nc4ccc(F)cc43)[C@@H]2C(=O)N1c1ccc(F)cc1 (stereo not given in full)
- IC50 [1]: > 100 µM (active)

SMILES: CC(C(=O)NC1CCS(=O)(=O)C1)N1C(=O)/C(=C/c2ccc(Cl)cc2)SC1=S (stereo not given)
- EC50 [3]: > 50 µM (active)

SMILES: N=c1c(C(=O)NCC2CCCO2)cc2c(=O)n3ccccc3nc2n1Cc1ccc(Cl)cc1 (stereo not given)
- EC50 [3]: > 50 µM (active)

SMILES: COC(=O)c1ccc(N2CCN(C)CC2)c(NC(=O)c2ccc(Br)o2)c1
- EC50 [2]: 5.96 µM (active)

SMILES: CN1CC(C(=O)c2ccc(Cl)cc2)C(c2ccc(N(C)C)cc2)C1 (stereo not given)
- IC50 [5]: 43.8 µM (active)

SMILES: [O-][n+]1c2ccccc2cc2ccccc21
- EC50 [3]: > 50 µM (active)

SMILES: Brc1ccc2nc(-c3c[nH]c4ccccc34)cn2c1
- EC50 [3]: > 50 µM (active)

SMILES: O=C(Nc1ccc(O)cc1C(=O)O)c1ccc2c(c1)C(=O)N(Cc1ccco1)C2=O
- IC50 [4]: 13.8 µM (active)

SMILES: Cc1ccc(C(=O)Nc2cc(Cl)ccc2C(=O)O)cc1
- IC50 [12]: 13.8 µM (active)

SMILES: C=C(C)c1ccc(C(=O)Nc2cc(Cl)ccc2C(=O)O)cc1
- IC50 [12]: 7.16 µM (active)

SMILES: Cn1sc(=O)c2ccccc21
- IC50 [12]: > 25 µM (inactive)

SMILES: C[C@H]1CCCCO[C@H](CN(C)C(=O)Nc2ccc(C(F)(F)F)cc2)[C@@H](C)CN([C@@H](C)CO)C(=O)c2cc(NS(=O)(=O)c3ccc(F)cc3)ccc2O1
- AC50 [13]: > 70 µM (inactive)
- AC50 [14]: 4.63 µM (active)

SMILES: C[C@@H]1CN([C@@H](C)CO)C(=O)Cc2cc(NC(=O)Nc3ccc(C(F)(F)F)cc3)ccc2O[C@H]1CN(C)C(=O)Nc1ccc(C(F)(F)F)cc1
- AC50 [13]: > 70 µM (inactive)
- AC50 [14]: 8.87 µM (active)

SMILES: COC(=O)c1ccc(Cl)cc1NC(=O)c1ccc(OC)cc1
- IC50 [12]: > 25 µM (inactive)

SMILES: O=C(N/N=C/c1ccccn1)c1ccc(Br)o1
- EC50 [3]: > 50 µM (active)
- AC50 [15]: 35.5 µM (inconclusive)
